In patent publication US20240199587A1, “HETEROCYCLIC COMPOUNDS” (Hoffmann-La Roche Inc., priority 2021, published 2024):
pIC50: −log10 of the molar value.

target: T1, MAGL (Homo sapiens, UniProt Q99685); assay: 2-AG assay (MAGL inhibitory activity, hydrolysis of 2-arachidonoylglycerol to arachidonic acid followed by mass spectrometry); type: biochemical; details: 8 μM 2-arachidonoylglycerol, 15 min pre-incubation, 30 min incubation at RT, RapidFire MS readout
T1 sequence (Q99685 1-303): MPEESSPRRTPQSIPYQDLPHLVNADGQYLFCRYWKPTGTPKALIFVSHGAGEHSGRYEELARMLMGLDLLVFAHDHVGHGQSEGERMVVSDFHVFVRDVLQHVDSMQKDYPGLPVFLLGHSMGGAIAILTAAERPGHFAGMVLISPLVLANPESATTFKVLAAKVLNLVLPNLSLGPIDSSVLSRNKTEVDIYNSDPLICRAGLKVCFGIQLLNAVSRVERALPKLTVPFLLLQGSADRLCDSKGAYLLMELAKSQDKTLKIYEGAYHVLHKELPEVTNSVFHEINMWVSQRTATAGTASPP
Summary of the method: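 Arachidonic acid released from 8 μM 2-arachidonoylglycerol was quantified by online SPE triple-quadrupole MS (negative ESI, 303.1→259.1), normalised to d8-arachidonic acid internal standard. Reaction ran 30 min at RT after 15 min RT compound pre-incubation with […] MAGL in TRIS/EDTA/Tween-20 buffer, 2.5% DMSO.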

Compound | pIC50
O=C(N1CC(c2ccc(N3CC[C@H](C(F)(F)F)C3)nc2)C1)N1CC2(CC(n3cnc(C4CC4)n3)C2)C1 [Example 476, [6-(3-cyclopropyl-1,2,4-triazol-1-yl)-2-azaspiro[3.3]heptan-2-yl]-[3-[6-[(3S)-3-(trifluoromethyl)pyrrolidin-1-yl]-3-pyridyl]azetidin-1-yl]methanone] | 9.25
O=C(N1CC(c2cnc(N3CC(C(F)(F)F)C3)nc2)C1)N1CC2(CC(n3cnc(C4CC4)n3)C2)C1 [Example 479, [6-(3-cyclopropyl-1,2,4-triazol-1-yl)-2-azaspiro[3.3]heptan-2-yl]-[3-[2-[3-(trifluoromethyl)azetidin-1-yl]pyrimidin-5-yl]azetidin-1-yl]methanone] | 8.12
O=C(N1CC(c2cnc(N3CC[C@@H](C(F)(F)F)C3)nc2)C1)N1CC2(CC(n3cnc(C4CC4)n3)C2)C1 [Example 482, [6-(3-cyclopropyl-1,2,4-triazol-1-yl)-2-azaspiro[3.3]heptan-2-yl]-[3-[2-[(3R)-3-(trifluoromethyl)pyrrolidin-1-yl]pyrimidin-5-yl]azetidin-1-yl]methanone] | 8.90
CS(=O)(=O)c1ccc(CC2CC3(C2)CN(C(=O)N2CC4(CC(n5cnc(C6CC6)n5)C4)C2)C3)c(F)c1 [Example 483, [6-(3-cyclopropyl-1,2,4-triazol-1-yl)-2-azaspiro[3.3]heptan-2-yl]-[6-[(2-fluoro-4-methylsulfonyl-phenyl)methyl]-2-azaspiro[3.3]heptan-2-yl]methanone] | 9.80
CS(=O)(=O)c1ccc(CN2CCC3(CC2)CN(C(=O)N2CC4(CC(n5cnc(C6CC6)n5)C4)C2)C3)cc1 [Example 486, [6-(3-cyclopropyl-1,2,4-triazol-1-yl)-2-azaspiro[3.3]heptan-2-yl]-[7-[(4-methylsulfonylphenyl)methyl]-2,7-diazaspiro[3.5]nonan-2-yl]methanone] | 7.84
O=C(N1CC2(CC(Cc3cnc(C(F)(F)F)cn3)C2)C1)N1CC2(CC(n3cnc(C4(O)CC4)n3)C2)C1 [Example 487, [6-[3-(1-hydroxycyclopropyl)-1,2,4-triazol-1-yl]-2-azaspiro[3.3]heptan-2-yl]-[6-[[5-(trifluoromethyl)pyrazin-2-yl]methyl]-2-azaspiro[3.3]heptan-2-yl]methanone] | 8.41
CS(=O)(=O)c1ccc(CC2CC3(C2)CN(C(=O)N2CC4(CC(n5cnc(C6CC6)n5)C4)C2)C3)nc1 [Example 488, [6-(3-cyclopropyl-1,2,4-triazol-1-yl)-2-azaspiro[3.3]heptan-2-yl]-[6-[(5-methylsulfonyl-2-pyridyl)methyl]-2-azaspiro[3.3]heptan-2-yl]methanone] | 8.36
CS(=O)(=O)c1cncc(CC2CC3(C2)CN(C(=O)N2CC4(CC(n5cnc(C6CC6)n5)C4)C2)C3)c1 [Example 489, [6-(3-cyclopropyl-1,2,4-triazol-1-yl)-2-azaspiro[3.3]heptan-2-yl]-[6-[(5-methylsulfonyl-3-pyridyl)methyl]-2-azaspiro[3.3]heptan-2-yl]methanone] | 8.48
CS(=O)(=O)c1cccc(CC2CC3(C2)CN(C(=O)N2CC4(CC(n5cnc(C6(O)CC6)n5)C4)C2)C3)c1 [Example 490, [6-[3-(1-hydroxycyclopropyl)-1,2,4-triazol-1-yl]-2-azaspiro[3.3]heptan-2-yl]-[6-[(3-methylsulfonylphenyl)methyl]-2-azaspiro[3.3]heptan-2-yl]methanone] | 8.17
O=C(N1CC(c2ccc(NC3(C(F)(F)F)CC3)nc2)C1)N1CC2(CC(n3cnc(C4(O)CC4)n3)C2)C1 [Example 492, [6-[3-(1-hydroxycyclopropyl)-1,2,4-triazol-1-yl]-2-azaspir[3.3]heptan-2-yl]-[3-[6-[[1-(trifluoromethyl)cyclopropyl]amino]-3-pyridyl]azetidin-1-yl]methanone] | 7.96
O=C(N1CC(c2ccc(N3CC(C(F)(F)F)C3)nc2)C1)N1CC2(CC(n3cnc(C4(O)CC4)n3)C2)C1 [Example 496, [6-[3-(1-hydroxycyclopropyl)-1,2,4-triazol-1-yl]-2-azaspiro[3.3]heptan-2-yl]-[3-[6-[3-(trifluoromethyl)azetidin-1-yl]-3-pyridyl]azetidin-1-yl]methanone] | 8.03
O=C(N1CC(OCc2cccc(S(=O)(=O)C(F)(F)F)c2)C1)N1CC2(CC(n3cnc(C4CC4)n3)C2)C1 [Example 498, [6-(3-cyclopropyl-1,2,4-triazol-1-yl)-2-azaspiro[3.3]heptan-2-yl]-[3-[[3-(trifluoromethylsulfonyl)phenyl]methoxy]azetidin-1-yl]methanone] | 8.77
O=C(N1CC(OCc2ccc(S(=O)(=O)C(F)(F)F)cc2)C1)N1CC2(CC(n3cnc(C4CC4)n3)C2)C1 [Example 499, [6-(3-cyclopropyl-1,2,4-triazol-1-yl)-2-azaspiro[3.3]heptan-2-yl]-[3-[[4-(trifluoromethylsulfonyl)phenyl]methoxy]azetidin-1-yl]methanone] | 8.36
CS(=O)(=O)c1ccccc1CN1CC2(C1)CN(C(=O)N1CC3(CC(n4cnc(C5CC5)n4)C3)C1)C2 [Example 502, [6-(3-cyclopropyl-1,2,4-triazol-1-yl)-2-azaspiro[3.3]heptan-2-yl]-[6-[(2-methylsulfonylphenyl)methyl]-2,6-diazaspiro[3.3]heptan-2-yl]methanone] | 7.92

Now from value to compound:

pIC50 | Compound
9.36 | CS(=O)(=O)c1cc(F)ccc1CC1CC2(C1)CN(C(=O)N1CC3(CC(n4cnc(C5CC5)n4)C3)C1)C2 [Example 475, [6-(3-cyclopropyl-1,2,4-triazol-1-yl)-2-azaspiro[3.3]heptan-2-yl]-[6-[(4-fluoro-2-methylsulfonyl-phenyl)methyl]-2-azaspiro[3.3]heptan-2-yl]methanone]
9.01 | O=C(N1CC(c2ccc(NC3(C(F)(F)F)CC3)nc2)C1)N1CC2(CC(n3cnc(C4CC4)n3)C2)C1 [Example 477, [6-(3-cyclopropyl-1,2,4-triazol-1-yl)-2-azaspiro[3.3]heptan-2-yl]-[3-[6-[[1-(trifluoromethyl)cyclopropyl]amino]-3-pyridyl]azetidin-1-yl]methanone]
9.13 | O=C(N1CC(c2ccc(NCC3(C(F)(F)F)CC3)cn2)C1)N1CC2(CC(n3cnc(C4CC4)n3)C2)C1 [Example 478, [6-(3-cyclopropyl-1,2,4-triazol-1-yl)-2-azaspiro[3.3]heptan-2-yl]-[3-[5-[[1-(trifluoromethyl)cyclopropyl]methylamino]-2-pyridyl]azetidin-1-yl]methanone]
8.39 | O=C(N1CC(c2cnc(N3CC[C@H](C(F)(F)F)C3)nc2)C1)N1CC2(CC(n3cnc(C4CC4)n3)C2)C1 [Example 481, [6-(3-cyclopropyl-1,2,4-triazol-1-yl)-2-azaspiro[3.3]heptan-2-yl]-[3-[2-[(3S)-3-(trifluoromethyl)pyrrolidin-1-yl]pyrimidin-5-yl]azetidin-1-yl]methanone]
7.71 | O=C(N1CC2(CCN(S(=O)(=O)C34CC(C(F)(F)F)(C3)C4)CC2)C1)N1CC2(CC(n3cnc(C4CC4)n3)C2)C1 [Example 484, [6-(3-cyclopropyl-1,2,4-triazol-1-yl)-2-azaspiro[3.3]heptan-2-yl]-[7-[[3-(trifluoromethyl)-1-bicyclo[1.1.1]pentanyl]sulfonyl]-2,7-diazaspiro[3.5]nonan-2-yl]methanone]
7.57 | CS(=O)(=O)c1cccc(CN2CCC3(CC2)CN(C(=O)N2CC4(CC(n5cnc(C6CC6)n5)C4)C2)C3)c1 [Example 485, [6-(3-cyclopropyl-1,2,4-triazol-1-yl)-2-azaspiro[3.3]heptan-2-yl]-[7-[(3-methylsulfonylphenyl)methyl]-2,7-diazaspiro[3.5]nonan-2-yl]methanone]
8.17 | CS(=O)(=O)c1ccc(CC2CC3(C2)CN(C(=O)N2CC4(CC(n5cnc(C6(O)CC6)n5)C4)C2)C3)cc1 [Example 491, [6-[3-(1-hydroxycyclopropyl)-1,2,4-triazol-1-yl]-2-azaspiro[3.3]heptan-2-yl]-[6-[(4-methylsulfonylphenyl)methyl]-2-azaspiro[3.3]heptan-2-yl]methanone]
9.01 | O=C(N1CC2(CC(Cc3ccc(C(F)(F)F)nc3)C2)C1)N1CC2(CC(n3cnc(C4(O)CC4)n3)C2)C1 [Example 495, [6-[3-(1-hydroxycyclopropyl)-1,2,4-triazol-1-yl]-2-azaspiro[3.3]heptan-2-yl]-[6-[[6-(trifluoromethyl)-3-pyridyl]methyl]-2-azaspiro[3.3]heptan-2-yl]methanone]
7.08 | O=C(N1CC2(CC(n3cnc(C4(O)CC4)n3)C2)C1)N1CC2(C1)CN(S(=O)(=O)c1cccc(OC(F)(F)F)c1)C2 [Example 497, [6-[3-(1-hydroxycyclopropyl)-1,2,4-triazol-1-yl]-2-azaspiro[3.3]heptan-2-yl]-[2-[3-(trifluoromethoxy)phenyl]sulfonyl-2,6-diazaspiro[3.3]heptan-6-yl]methanone]
7.40 | CS(=O)(=O)c1ccc(CN2CC3(C2)CN(C(=O)N2CC4(CC(n5cnc(C6CC6)n5)C4)C2)C3)cc1 [Example 500, [6-(3-cyclopropyl-1,2,4-triazol-1-yl)-2-azaspiro[3.3]heptan-2-yl]-[6-[(4-methylsulfonylphenyl)methyl]-2,6-diazaspiro[3.3]heptan-2-yl]methanone]
8.17 | CS(=O)(=O)c1cccc(CN2CC3(C2)CN(C(=O)N2CC4(CC(n5cnc(C6CC6)n5)C4)C2)C3)c1 [Example 501, [6-(3-cyclopropyl-1,2,4-triazol-1-yl)-2-azaspiro[3.3]heptan-2-yl]-[6-[(3-methylsulfonylphenyl)methyl]-2,6-diazaspiro[3.3]heptan-2-yl]methanone]
